Measured values taken from ChEMBL document CHEMBL4359845, “Synthesis and Evaluation of Carbonic Anhydrase Inhibitors with Carbon Monoxide Releasing Properties for the Management of Rheumatoid Arthritis” (J Med Chem, 2019).
pKi: −log10 of the molar value. Calls of active or inactive are those of the source.

What was measured:
Carbonic anhydrase 1 [1] = molecular target: T1, Carbonic anhydrase 1 (Homo sapiens, UniProt P00915); assay: Inhibition of recombinant human carbonic anhydrase 1 incubated for 6 hrs prior to testing measured for 10 to 100 secs by phenol red-based stopped-flow CO2 hydration assay
T1 sequence (P00915 whole entry): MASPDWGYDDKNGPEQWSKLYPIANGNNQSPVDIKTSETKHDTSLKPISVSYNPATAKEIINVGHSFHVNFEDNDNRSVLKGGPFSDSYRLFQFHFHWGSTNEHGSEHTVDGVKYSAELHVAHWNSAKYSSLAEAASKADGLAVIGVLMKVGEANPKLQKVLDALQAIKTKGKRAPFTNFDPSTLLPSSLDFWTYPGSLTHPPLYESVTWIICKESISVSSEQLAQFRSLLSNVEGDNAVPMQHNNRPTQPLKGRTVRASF

Carbonic anhydrase 2 [2] = molecular target: T2, Carbonic anhydrase 2 (Homo sapiens, UniProt P00918); assay: Inhibition of recombinant human carbonic anhydrase 2 incubated for 6 hrs prior to testing measured for 10 to 100 secs by phenol red-based stopped-flow CO2 hydration assay
Carbonic anhydrase 9 [3] = molecular target: T3, Carbonic anhydrase 9 (Homo sapiens, UniProt Q16790); assay: Inhibition of recombinant human carbonic anhydrase 9 incubated for 6 hrs prior to testing measured for 10 to 100 secs by phenol red-based stopped-flow CO2 hydration assay
Carbonic anhydrase 12 = Carbonic anhydrase 12 (Homo sapiens, UniProt O43570); assay: Inhibition of recombinant human carbonic anhydrase 12 incubated for 6 hrs prior to testing measured for 10 to 100 secs by phenol red-based stopped-flow CO2 hydration assay
Carbonic anhydrase 12, sequence (O43570 whole entry): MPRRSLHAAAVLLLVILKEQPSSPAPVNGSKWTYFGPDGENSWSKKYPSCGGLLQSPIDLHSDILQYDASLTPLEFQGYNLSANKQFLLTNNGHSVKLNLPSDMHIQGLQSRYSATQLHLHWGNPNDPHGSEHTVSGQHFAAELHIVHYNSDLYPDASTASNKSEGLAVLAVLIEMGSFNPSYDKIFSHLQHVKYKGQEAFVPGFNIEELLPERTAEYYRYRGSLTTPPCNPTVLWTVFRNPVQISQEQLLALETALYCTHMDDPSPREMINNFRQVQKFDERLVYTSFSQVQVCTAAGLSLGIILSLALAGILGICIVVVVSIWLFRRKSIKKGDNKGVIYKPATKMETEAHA

Carbonic anhydrase 1 [4] = molecular target: T1, Carbonic anhydrase 1; assay: Inhibition of recombinant human carbonic anhydrase 1 incubated for 15 mins prior to testing measured for 10 to 100 secs by phenol red-based stopped-flow CO2 hydration assay
Carbonic anhydrase 2 [5] = molecular target: T2, Carbonic anhydrase 2; assay: Inhibition of recombinant human carbonic anhydrase 2 incubated for 15 mins prior to testing measured for 10 to 100 secs by phenol red-based stopped-flow CO2 hydration assay
Carbonic anhydrase 9 [6] = molecular target: T3, Carbonic anhydrase 9; assay: Inhibition of recombinant human carbonic anhydrase 9 incubated for 15 mins prior to testing measured for 10 to 100 secs by phenol red-based stopped-flow CO2 hydration assay
Carbonic anhydrase 4 = Carbonic anhydrase 4 (Homo sapiens, UniProt P22748); assay: Inhibition of recombinant human carbonic anhydrase 4 incubated for 15 mins prior to testing measured for 10 to 100 secs by phenol red-based stopped-flow CO2 hydration assay
Carbonic anhydrase 4, sequence (P22748 whole entry): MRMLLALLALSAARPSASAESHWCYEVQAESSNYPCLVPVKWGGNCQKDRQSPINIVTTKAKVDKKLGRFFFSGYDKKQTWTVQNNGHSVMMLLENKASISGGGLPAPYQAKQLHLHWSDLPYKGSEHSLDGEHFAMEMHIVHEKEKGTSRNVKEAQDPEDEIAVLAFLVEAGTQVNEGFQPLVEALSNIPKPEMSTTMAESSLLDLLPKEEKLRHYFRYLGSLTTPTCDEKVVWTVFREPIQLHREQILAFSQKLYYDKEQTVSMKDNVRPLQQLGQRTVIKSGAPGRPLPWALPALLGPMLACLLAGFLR

Rattus norvegicus [7] = assay: (§1) Antihyperalgesic activity in complete freund's adjuvant-induced Sprague-Dawley rat arthritis model assessed as increase in hind paw withdrawal reflex thresholds at 42.4 mg/kg, po administered 14 days post complete freund's adjuvant challenge and measured up to 45 mins by analgesiometry-based paw pressure test; assay type: functional, organism-based
Rattus norvegicus [8] = assay: as §1, with “after 45” for “up”, “60” for “45”; assay type: functional, organism-based
Rattus norvegicus [9] = assay: Effect on contralateral paw withdrawal reflex threshold in complete freund's adjuvant-induced Sprague-Dawley rat arthritis model at 42.4 mg/kg, po administered 14 days post complete freund's adjuvant challenge by analgesiometry-based paw pressure test; assay type: ADME, organism-based; conditions: in vivo, 336 h
Rattus norvegicus [10] = assay: (§2) Antihyperalgesic activity in complete freund's adjuvant-induced Sprague-Dawley rat arthritis model assessed as decrease in weight burden on contralateral to ipsilateral paw at 42.4 mg/kg, po administered 14 days post complete freund's adjuvant challenge and measured up to 45 mins by incapacitance test; assay type: functional, organism-based
Rattus norvegicus [11] = assay: as §1, with “100” for “42.4”, “15” for “45”; assay type: functional, organism-based
Rattus norvegicus [12] = assay: as §1, with “100” for “42.4”, “after 15” for “up”, “60” for “45”; assay type: functional, organism-based
Rattus norvegicus [13] = assay: Effect on contralateral paw withdrawal reflex threshold in complete freund's adjuvant-induced Sprague-Dawley rat arthritis model at 100 mg/kg, po administered 14 days post complete freund's adjuvant challenge by analgesiometry-based paw pressure test; assay type: ADME, organism-based; conditions: in vivo, 336 h
Rattus norvegicus [14] = assay: as §2, with “100” for “42.4”, “15” for “45”; assay type: functional, organism-based

SMILES	pKi (Carbonic anhydrase 1 [1])	pKi (Carbonic anhydrase 2 [2])	pKi (Carbonic anhydrase 9 [3])	pKi (Carbonic anhydrase 12)	pKi (Carbonic anhydrase 1 [4])	pKi (Carbonic anhydrase 2 [5])	pKi (Carbonic anhydrase 9 [6])	further results
C#CCOc1ccc2oc(=O)ccc2c1	< 5.00	< 5.00						
C#CCNc1ccc2c(C)cc(=O)oc2c1			6.77	7.46				
C#CCSc1ccc(S(N)(=O)=O)cc1					7.52	7.53	8.12	
C#CCNc1ccc(S(N)(=O)=O)cc1					6.07	7.02	6.38	pKi (Carbonic anhydrase 4): < 5.00; Activity (Rattus norvegicus [7]): Active; Activity (Rattus norvegicus [8]): inactive; Activity (Rattus norvegicus [9]): Non-Toxic; Activity (Rattus norvegicus [10]): Active
CC(C)Cc1ccc(C(C)C(=O)O)cc1 (stereo not given) [IBUPROFEN]								Activity (Rattus norvegicus [11]): Active; Activity (Rattus norvegicus [12]): inactive; Activity (Rattus norvegicus [13]): Non-Toxic; Activity (Rattus norvegicus [14]): Active

Now from value to compound, other results behind:

pKi (Carbonic anhydrase 1 [1])	pKi (Carbonic anhydrase 2 [2])	pKi (Carbonic anhydrase 9 [3])	pKi (Carbonic anhydrase 12)	pKi (Carbonic anhydrase 1 [4])	pKi (Carbonic anhydrase 2 [5])	pKi (Carbonic anhydrase 9 [6])	SMILES	further results
< 5.00	< 5.00	5.21	7.52				C#CCOc1ccc2c(c1)OS(=O)(=O)C=C2	
< 5.00	< 5.00	6.32	7.35				C#CCOc1ccc2c(c1)C=CS(=O)(=O)O2	
				6.09	9.36	8.42	C#CCN(CC#C)CCCCOc1ccc(S(N)(=O)=O)cc1	
